Data as given in patent US11566007B2, “Ras inhibitors” (Revolution Medicines, Inc., priority 2019, dated 2023).
“And” between values parts separate entries of the source, which are not always exact repeats. Equal entries are not always repeated.

Key:
[1] = test system: NCI-H358 cells (K-Ras G12C); test: Potency assay: pERK in NCI-H358 cells; type: cell-based, human; conditions: Homo sapiens, NCI-H358; H358 KRAS G12C; read-out: pERK EC50
In short: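 pERK decrease read by AlphaLISA SureFire p-ERK1/2 or In-Cell Western after 4 h compound exposure at 37 °C, 5% CO2.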

NCI-H358 (K-Ras G12C) = test: CellTiter-Glo cell viability assay, NCI-H358; type: cell-based, human; conditions: Homo sapiens, NCI-H358, 120 h, NCI-H358, 5-day treatment; class symbols; read-out: Additional H358 Cell Viability assay data (K-Ras G12C, IC50)
In short: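 Compounds dispensed directly onto seeded K-Ras mutant cells; plates read on day 5 after ~30 min equilibration to room temperature, by CellTiter-Glo luminescence. Signal normalized as (sample/mean DMSO)×100, then fitted to a four-parameter logistic curve.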

K-Ras G12C = K-Ras G12C (Homo sapiens (Human), UniProt P01116+P62937, G12C); test: Ras-Raf (BRAF RBD) disruption / FRET / MOA assay, KRAS G12C; type: biochemical; conditions: KRAS G12C; Ras-Raf disruption/FRET/MOA assay; read-out: IC50* KRAS G12C FRET data
In short: (§1)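 A 10-point, 3-fold dilution series topping at 30 μM final was incubated 3 h at 25° C with the Ras/cyclophilin A/BRAF RBD mixture.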

K-Ras G13C = K-Ras G13C (Homo sapiens (Human), UniProt P01116+P62937, G13C); test: Ras-Raf (BRAF RBD) disruption / FRET / MOA assay, KRAS G13C; type: biochemical; conditions: KRAS G13C; Ras-Raf disruption/FRET/MOA assay; read-out: IC50* KRAS G13C FRET data
In short: as §1

KRAS G12S = KRAS G12S (Homo sapiens (Human), UniProt P01116+P62937, G12S); test: Ras-Raf (BRAF RBD) disruption / FRET / MOA assay, KRAS G12S; type: biochemical; conditions: Ras-Raf disruption/FRET/MOA assay; class symbols; read-out: KRAS G12S FRET data IC50
In short: as §1

KRAS G12D = KRAS G12D (Homo sapiens (Human), UniProt P01116+P62937, G12D); test: Ras-Raf (BRAF RBD) disruption / FRET / MOA assay, KRAS G12D; type: biochemical; conditions: Ras-Raf disruption/FRET/MOA assay; class symbols; read-out: KRAS G12D FRET data IC50
In short: as §1

KRAS G12V = KRAS G12V (Homo sapiens (Human), UniProt P01116+P62937, G12V); test: Ras-Raf (BRAF RBD) disruption / FRET / MOA assay, KRAS G12V; type: biochemical; conditions: read-out: IC50* KRAS G12V FRET data
In short: as §1

KRAS WT = KRAS WT (Homo sapiens (Human), UniProt P01116+P62937); test: Ras-Raf (BRAF RBD) disruption / FRET / MOA assay, KRAS WT; type: biochemical; conditions: read-out: IC50* KRAS WT FRET data
In short: as §1

KRAS G13D = KRAS G13D (Homo sapiens (Human), UniProt P01116+P62937, G13D); test: Ras-Raf (BRAF RBD) disruption / FRET / MOA assay, KRAS G13D; type: biochemical; conditions: read-out: IC50* KRAS G13D FRET data
In short: as §1

NRAS G12C = NRAS G12C (Homo sapiens (Human), UniProt P01111+P62937, G12C); test: Ras-Raf (BRAF RBD) disruption / FRET / MOA assay, NRAS G12C; type: biochemical; conditions: read-out: IC50* NRAS G12C FRET data
In short: as §1

Chain of K-Ras G13C (P01116-2 other isoform, or with tags, fused parts or gaps G13C): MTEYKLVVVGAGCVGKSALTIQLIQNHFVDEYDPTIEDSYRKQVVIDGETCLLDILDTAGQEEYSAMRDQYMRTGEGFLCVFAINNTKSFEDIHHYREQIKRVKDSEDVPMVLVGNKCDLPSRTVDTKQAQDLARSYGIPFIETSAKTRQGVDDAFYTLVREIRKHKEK
Chain of K-Ras G13C (P62937 whole entry): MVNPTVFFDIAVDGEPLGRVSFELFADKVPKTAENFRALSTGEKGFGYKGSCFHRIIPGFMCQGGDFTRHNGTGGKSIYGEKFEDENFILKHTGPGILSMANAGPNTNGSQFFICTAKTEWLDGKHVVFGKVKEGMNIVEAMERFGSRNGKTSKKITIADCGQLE
Chain of KRAS G12D (P01116-2 other isoform, or with tags, fused parts or gaps G12D): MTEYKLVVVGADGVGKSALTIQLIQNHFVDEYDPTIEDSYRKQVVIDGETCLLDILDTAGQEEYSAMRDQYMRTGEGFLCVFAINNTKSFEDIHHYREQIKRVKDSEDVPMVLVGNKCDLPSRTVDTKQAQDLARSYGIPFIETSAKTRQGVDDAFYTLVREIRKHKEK
Chain of KRAS G12D (P62937 whole entry): as the sequence (P62937 whole entry) above
Chain of KRAS G13D (P01116-2 other isoform, or with tags, fused parts or gaps G13D): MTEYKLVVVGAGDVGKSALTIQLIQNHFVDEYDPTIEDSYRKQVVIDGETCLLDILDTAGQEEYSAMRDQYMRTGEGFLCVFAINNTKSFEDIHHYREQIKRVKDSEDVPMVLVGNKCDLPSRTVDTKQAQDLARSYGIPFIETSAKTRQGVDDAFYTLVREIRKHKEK
Chain of KRAS G13D (P62937 whole entry): as the sequence (P62937 whole entry) above
Chain of KRAS G12S (P01116-2 other isoform, or with tags, fused parts or gaps G12S): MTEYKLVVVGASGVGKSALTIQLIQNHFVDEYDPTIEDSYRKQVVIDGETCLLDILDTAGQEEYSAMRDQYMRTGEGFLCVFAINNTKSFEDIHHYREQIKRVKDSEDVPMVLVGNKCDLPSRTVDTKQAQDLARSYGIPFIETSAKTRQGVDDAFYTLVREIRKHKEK
Chain of KRAS G12S (P62937 whole entry): as the sequence (P62937 whole entry) above
Chain of KRAS G12V (P01116-2 other isoform, or with tags, fused parts or gaps G12V): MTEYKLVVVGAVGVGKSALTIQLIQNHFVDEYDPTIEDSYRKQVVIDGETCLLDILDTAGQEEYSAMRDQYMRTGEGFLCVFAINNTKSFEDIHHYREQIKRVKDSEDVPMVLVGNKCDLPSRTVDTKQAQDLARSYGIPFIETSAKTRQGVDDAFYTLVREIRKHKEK
Chain of KRAS G12V (P62937 whole entry): as the sequence (P62937 whole entry) above
Chain of K-Ras G12C (P01116-2 other isoform, or with tags, fused parts or gaps G12C): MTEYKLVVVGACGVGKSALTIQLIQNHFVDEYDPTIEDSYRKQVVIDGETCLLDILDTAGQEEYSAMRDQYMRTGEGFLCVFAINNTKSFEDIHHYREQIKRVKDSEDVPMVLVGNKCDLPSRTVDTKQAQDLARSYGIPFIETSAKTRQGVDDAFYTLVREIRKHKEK
Chain of K-Ras G12C (P62937 whole entry): as the sequence (P62937 whole entry) above
Chain of NRAS G12C (P01111 whole entry G12C): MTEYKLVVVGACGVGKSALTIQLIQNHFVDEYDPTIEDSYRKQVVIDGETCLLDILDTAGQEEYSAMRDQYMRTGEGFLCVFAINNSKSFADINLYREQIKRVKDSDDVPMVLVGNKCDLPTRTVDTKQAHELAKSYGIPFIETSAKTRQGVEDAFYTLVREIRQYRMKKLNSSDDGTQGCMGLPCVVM
Chain of NRAS G12C (P62937 whole entry): as the sequence (P62937 whole entry) above
Chain of KRAS WT (P01116-2 other isoform, or with tags, fused parts or gaps): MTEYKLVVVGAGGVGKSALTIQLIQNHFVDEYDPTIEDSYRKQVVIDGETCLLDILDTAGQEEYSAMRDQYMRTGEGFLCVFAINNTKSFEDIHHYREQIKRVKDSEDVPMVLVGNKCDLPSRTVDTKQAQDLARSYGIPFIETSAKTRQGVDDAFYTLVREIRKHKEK
Chain of KRAS WT (P62937 whole entry): as the sequence (P62937 whole entry) above

SMILES | EC50 [1] [nM] | IC50 (NCI-H358 (K-Ras G12C)) [nM] | IC50 (K-Ras G12C) | IC50 (K-Ras G13C) [nM] | IC50 (KRAS G12S) [nM] | IC50 (KRAS G12D) [nM] | IC50 (KRAS G12V) [nM] | IC50 (KRAS WT) [nM] | IC50 (KRAS G13D) [nM] | IC50 (NRAS G12C)
C=CC(=O)N1CC[C@H](C(=O)N(C)[C@@H](C(=O)N[C@H]2Cc3cc(O)cc(c3)-c3ccc4c(c3)c(c(-c3cccc(CN(C)C)c3)n4CC)CC(C)(C)COC(=O)[C@@H]3CCCN(N3)C2=O)C(C)C)C1 [Example A106] | < 5000 | 100 to 1000 | 1000 to 10000 nM | > 10000 | > 10000 | > 10000 | > 10000 | > 10000 | > 10000 | 1000 to 10000 nM
CCn1c(-c2cccnc2[C@H](C)OC)c2c3cc(ccc31)-c1cccc(c1)C[C@H](NC(=O)[C@H](C(C)C)N(C)C(=O)[C@H]1CCN(C(=O)C#CC3(N(C)C)CN(C)C3)C1)C(=O)N1CCC[C@H](N1)C(=O)OCC(C)(C)C2 (atropisomer, axis not shown) [Example A499] | < 5000 | 10 to 100 | 10 to 100 nM | 1000 to 10000 | 1000 to 10000 | 1000 to 10000 | 1000 to 10000 | 1000 to 10000 | 1000 to 10000 | 10 to 100 nM
C=CC(=O)N1CCCN(C(=O)N(C)[C@H](C(=O)N[C@H]2Cc3nc(cs3)-c3ccc4c(c3)c(c(-c3cccnc3[C@H](C)OC)n4CC)CC(C)(C)COC(=O)[C@@H]3CCCN(N3)C2=O)C(C)C)CC1 (atropisomer, axis not shown) [Example A436] | < 5000 | 10 to 100 | 10 to 100 nM | 100 to 1000 | 100 to 1000 | 100 to 1000 | 100 to 1000 | 10 to 100 | 100 to 1000 | 10 to 100 nM
CCn1c(-c2cccnc2COC)c2c3cc(ccc31)-c1cc(O)cc(c1)C[C@H](NC(=O)[C@H](C(C)C)N(C)C(=O)[C@H]1CCN(C(=O)C#CCN3CCN(C)CC3)C1)C(=O)N1CCC[C@H](N1)C(=O)OCC(C)(C)C2 [Example A189] | < 5000 | > 1000 | 10 to 100 nM | 100 to 1000 | 100 to 1000 | 100 to 1000 | 100 to 1000 | 100 to 1000 | 100 to 1000 | 10 to 100 nM
C=CC(=O)N1C[C@@H](C(=O)N(C)[C@H](C(=O)N[C@H]2Cc3cccc(c3)-c3ccc4c(c3)c(c(-c3cccnc3[C@H](C)OC)n4CC)CC(C)(C)COC(=O)[C@@H]3CCCN(N3)C2=O)C(C)C)C(C)(C)C1 (atropisomer, axis not shown) [Example A458] | < 5000 | 10 to 100 | 10 to 100 nM | 100 to 1000 | 1000 to 10000 | > 10000 | 1000 to 10000 | 1000 to 10000 | 1000 to 10000 | 10 to 100 nM
CCn1c(-c2cnccc2COC)c2c3cc(ccc31)-c1cc(O)cc(c1)C[C@H](NC(=O)[C@H](C(C)C)N(C)C(=O)[C@H]1CCN(C(=O)C(C)(C)N(C)C)C1)C(=O)N1CCC[C@H](N1)C(=O)OCC(C)(C)C2 [Example A153] | < 5000 | 100 to 1000 | 10 to 100 nM | 100 to 1000 | 100 to 1000 | 100 to 1000 | 100 to 1000 | 100 to 1000 | 100 to 1000 | 10 to 100 nM
CCn1c(-c2cccnc2[C@H](C)OC)c2c3cc(ccc31)-c1nc(cs1)C[C@H](NC(=O)[C@H](C(C)C)N(C)C(=O)[C@H]1CCN(C(=O)C#CC(C)(C)N3CCC3)C1)C(=O)N1CCC[C@H](N1)C(=O)OCC(C)(C)C2 (atropisomer, axis not shown) [Example A440] | < 5000 | < 10 | 10 to 100 nM | 100 to 1000 | 1000 to 10000 | 1000 to 10000 | 1000 to 10000 | 1000 to 10000 | 1000 to 10000 | 10 to 100 nM
C=CC(=O)N1C[C@@H](C)[C@H](C(=O)N(C)[C@H](C(=O)N[C@H]2Cc3cccc(c3)-c3ccc4c(c3)c(c(-c3cccnc3[C@H](C)OC)n4CC)CC(C)(C)COC(=O)[C@@H]3CCCN(N3)C2=O)C(C)C)C1 (atropisomer, axis not shown) [Example A497] | < 5000 | 10 to 100 | 100 to 1000 nM | 100 to 1000 | > 10000 | > 10000 | > 10000 | 1000 to 10000 | > 10000 | 100 to 1000 nM
CO[C@@H](C)c1ncccc1-c1c2c3cc(ccc3n1C)-c1cccc(c1)C[C@H](NC(=O)[C@H](C(C)C)N(C)C(=O)[C@H]1CCN(C(=O)C#CCN3CCOCC3)C1)C(=O)N1CCC[C@H](N1)C(=O)OCC(C)(C)C2 (atropisomer, axis not shown) [Example A192] | < 5000 | 100 to 1000 | 100 to 1000 nM and 1000 to 10000 nM | > 10000 | > 10000 | > 10000 | > 10000 | > 10000 | > 10000 | 100 to 1000 nM and 1000 to 10000 nM
C=CC(=O)N(C)CC(=O)N(C)[C@H](C(=O)N[C@H]1Cc2cc(O)cc(c2)-c2ccc3c(c2)c(c(-c2cccnc2COC)n3CC)CC(C)(C)COC(=O)[C@@H]2CCCN(N2)C1=O)C(C)C [Example A147] | < 5000 | 10 to 100 | 100 to 1000 nM | 100 to 1000 | 100 to 1000 | 1000 to 10000 | 100 to 1000 | 100 to 1000 | 1000 to 10000 | 100 to 1000 nM
CCn1c(-c2cnccc2C(C)C)c2c3cc(ccc31)-c1cc(O)cc(c1)C[C@H](NC(=O)[C@H](C(C)C)N(C)C(=O)[C@H]1CCN(C(=O)C#CCN(C)C)C1)C(=O)N1CCC[C@H](N1)C(=O)OCC(C)(C)C2 [Example A141] | < 5000 | < 10 | < 10 nM | 10 to 100 | 100 to 1000 | 1000 to 10000 | 100 to 1000 | 100 to 1000 | 100 to 1000 | < 10 nM
C=CC(=O)N1CC[C@@H](C(=O)N(C)[C@H](C(=O)N[C@H]2Cc3cc(O)cc(c3)-c3ccc4c(c3)c(c(-c3cncnc3)n4CC)CC(C)(C)COC(=O)[C@@H]3CCCN(N3)C2=O)C(C)C)O1 [Example A179] | < 5000 | > 1000 | 10 to 100 nM | 100 to 1000 | 1000 to 10000 | 1000 to 10000 | 1000 to 10000 | 1000 to 10000 | 1000 to 10000 | 10 to 100 nM
C=CC(=O)N1CC2(C1)CN(C(=O)N(C)[C@H](C(=O)N[C@H]1Cc3nc(cs3)-c3ccc4c(c3)c(c(-c3cccnc3[C@H](C)OC)n4CC)CC(C)(C)COC(=O)[C@@H]3CCCN(N3)C1=O)C(C)C)C2 (atropisomer, axis not shown) [Example A419] | < 5000 | < 10 | 100 to 1000 nM | 100 to 1000 | 100 to 1000 | 1000 to 10000 | 100 to 1000 | 100 to 1000 | 1000 to 10000 | 10 to 100 nM
CCn1c(-c2cccnc2[C@H](C)OC)c2c3cc(ccc31)-c1csc(n1)C[C@H](NC(=O)[C@H](C(C)C)N1CC[C@@]3(CCN(C(=O)C#CC(C)(C)N(C)C)C3)C1=O)C(=O)N1CCC[C@H](N1)C(=O)OCC(C)(C)C2 (single isomer, unassigned) [Example A425] | < 5000 | < 10 | < 10 nM | 100 to 1000 | 1000 to 10000 | > 10000 | > 10000 | > 10000 | > 10000 | 10 to 100 nM
CC#CC(=O)N1CC[C@@]2(CCN([C@H](C(=O)N[C@H]3Cc4cccc(c4)-c4ccc5c(c4)c(c(-c4cccnc4[C@H](C)OC)n5CC)CC(C)(C)COC(=O)[C@@H]4CCCN(N4)C3=O)C(C)C)C2=O)C1 (atropisomer, axis not shown) [Example A426] | < 5000 | 10 to 100 | 100 to 1000 nM | 1000 to 10000 | 1000 to 10000 | > 10000 | 1000 to 10000 | 1000 to 10000 | > 10000 | 1000 to 10000 nM
